Test results reported in patent publication US6022307A, “Substituted dibenzothiophenes having antiangiogenic activity” (American Cyanamid Company, priority 1999, dated 2000).
Counter-ions that a name gives are not always drawn.

Tested on: KDR
Procedure: Inhibition of Binding of VEGF 165 to KDR & Flt-1 Receptors as Measured by SPA Assay
Preparation of conditioned media containing the KDR-Fc soluble VEGF receptor.:
Human 293KDR2 cells, which secrete a soluble KDR-Fc fusion protein, were grown in Dulbecco's Modified Eagle Medium supplemented with 10% fetal calf serum, 2 mM glutamine, 10 units/ml penicillin G sulfate, 10 μg/ml streptomycin sulfate and 175 μg/ml geneticin (G418) sulfate. Cells were plated at a density of 10^6 cells/100 mm dish and incubated at 37° C. in a humidified atmosphere containing 95% air and 5% CO2. After 10 days, conditioned medium was collected and centrifuged at 15,000 rpm for 15 min to remove dead cells. A total of 0.1 volume of 1.15% gelatin and 0.02 volume of 1M HEPES buffer (pH 8) was added. Leupeptin and pepstatin A were added to 1 μg/ml each.
Preparation of ^125 I-labelled VEGF ligand:
Recombinant human ^125 T-labelled VEGF 165 was purchased from Amersham (3,800 cpm/fmol). ^125,-labelled VEGF was diluted in DMEM supplemented with gelatin (0.15%) and HEPES buffer (20 mM) to a final concentration of 40,000 cpm/25 μl.
Preparation of SPA beads:
SPA PVT antibody-binding beads were purchased from Amersham. Each bottle of SPA beads (500 mg) was reconstituted in 25 ml of DMEM supplemented with gelatin (0.15%) and HEPES buffer (20 mM). The bottle contents were well mixed (15 min with a stir bar at room temperature).
SPA assays were performed in flat-bottom polystyrene 96 well microtitre plates.
(a) Pipette 50 μl of SPA beads to well.
(b) Pipette 25 μl of conditioned medium to well.
(d) Pipette 25 μl of ^125 J-VEGF 165 to well.
The appropriate control wells were set up to measure non-specific binding, solvent effect, etc. The assays were run in duplicate or triplicate wells. Plates were sealed and incubate at room temperature without shaking for 5 to 20 hours. Plates were then counted in a Packard TopCount microtitre plate liquid scintillation counter.
A typical assay gave 3,000 to 6,000 cpm bound. Background binding (measured in the presence of 100-fold molar excess of unlabelled VEGF 165) was typically 200 to 300 cpm bound. Compounds were tested at 30, 10, 3, 1, 0.3 and 0.1 μg/ml in DMSO. […] Half maximal binding was determined by the following equation:
s=maximal cpm bound in the absence of compound.
The IC50 values were determined graphically by the following procedure:
A graph was drawn plotting compound concentration (x-axis) versus cpm bound (y-axis).
The half maximal binding was calculated using the equation above.
A horizontal line (LINE A) was drawn which intersects the y-axis at the half maximal binding value.
A vertical line (LINE B) was drawn through the point where LINE A intersects the inhibition curve.
The point where LINE B intersects the x-axis was extrapolated from the graph to give the IC50 value.

IC50	SMILES
2.5 µg/mL	O=C(/C=C/c1ccncc1)Nc1cc2c(cc1S(=O)(=O)O)-c1cc(S(=O)(=O)O)c(NC(=O)/C=C/c3ccncc3)cc1S2(=O)=O [Example 28, 5,5-Dioxo-3,7-bis-(3-pyridin-4-ylacryloylamino)-5H-5^6-dibenzothiophene-2,8-disulfonic acid, disodium salt]
5 µg/mL	O=C(/C=C/c1cccc(O)c1)Nc1cc2c(cc1S(=O)(=O)O)-c1cc(S(=O)(=O)O)c(NC(=O)/C=C/c3cccc(O)c3)cc1S2(=O)=O [Example 31, 3,7-Bis-[(E)-3-(3-hydroxy-phenyl)acryloylamino]-5,5-dioxo-5H-5^6-dibenzothiophene-2,8-disulfonic acid, disodium]
0.8 µg/mL	N#Cc1ccc(/C=C/C(=O)Nc2cc3c(cc2S(=O)(=O)O)-c2cc(S(=O)(=O)O)c(NC(=O)/C=C/c4ccc(C#N)cc4)cc2S3(=O)=O)cc1 [Example 32, 3,7-Bis-[3-(4-cyanophenyl)-acryloylamino]-5,5-dioxo-5H-5^6-dibenzothiophene-2,8-disulfonic acid, disodium salt]
0.5 µg/mL	O=C(/C=C/c1ccc(Br)cc1)Nc1cc2c(cc1S(=O)(=O)O)-c1cc(S(=O)(=O)O)c(NC(=O)/C=C/c3ccc(Br)cc3)cc1S2(=O)=O [Example 33, 3,7-Bis-[3-(4-bromophenyl)-acryloylamino]-5,5-dioxo-5H-5^6-dibenzothiophene-2,8-disulfonic acid, disodium salt]
2.5 µg/mL	COc1ccccc1/C=C/C(=O)Nc1cc2c(cc1S(=O)(=O)O)-c1cc(S(=O)(=O)O)c(NC(=O)/C=C/c3ccccc3OC)cc1S2(=O)=O [Example 34, 3,7-Bis-[3-(2-methoxyphenyl)-acryloylamino]-5,5-dioxo-5H-5^6-dibenzothiophene-2,8-disulfonic acid, disodium salt]
2.5 µg/mL	Cc1ccc(C)c(/C=C/C(=O)Nc2cc3c(cc2S(=O)(=O)O)-c2cc(S(=O)(=O)O)c(NC(=O)/C=C/c4cc(C)ccc4C)cc2S3(=O)=O)c1 [Example 35, 3,7-Bis-[3-(2,5-dimethylphenyl)-acryloylamino]-5,5-dioxo-5H-5^6-dibenzothiophene-2,8-disulfonic acid, disodium]
6 µg/mL	CC(C)c1ccc(/C=C/C(=O)Nc2cc3c(cc2S(=O)(=O)O)-c2cc(S(=O)(=O)O)c(NC(=O)/C=C/c4ccc(C(C)C)cc4)cc2S3(=O)=O)cc1 [Example 36, 3,7-Bis-[3-(4-isopropylphenyl)-acryloylamino]-5,5-dioxo-5H-5^ -dibenzothiophene-2,8-disulfonic acid, disodium]
5 µg/mL	O=C(/C=C/c1cccc(C(F)(F)F)c1)Nc1cc2c(cc1S(=O)(=O)O)-c1cc(S(=O)(=O)O)c(NC(=O)/C=C/c3cccc(C(F)(F)F)c3)cc1S2(=O)=O [Example 38, 3,7-Bis-[3-(3-trifluoromethyl-phenyl)acryloyl-amino]-5,5-dioxo-5H-5^6-dibenzothiophene-2,8-disulfonic acid, disodium salt]
4 µg/mL	O=C(Nc1cc2c(cc1S(=O)(=O)O)-c1cc(S(=O)(=O)O)c(NC(=O)c3cc4ccccc4s3)cc1S2(=O)=O)c1cc2ccccc2s1 [Example 40, 3,7-Bis-[(benzo[b]thiophene-2-carbonyl)amino]-5,5-dioxo-5H-5^ -dibenzothiophene-2,8-disulfonic acid, disodium]
0.6 µg/mL	O=C(Nc1cc2c(cc1S(=O)(=O)O)-c1cc(S(=O)(=O)O)c(NC(=O)c3cc4sccc4s3)cc1S2(=O)=O)c1cc2sccc2s1 [Example 43, 5,5-Dioxo-3,7-bis-[(thieno[3,2-b]thiophene-2-carbonyl)-amino]-5H-5^6-dibenzothiophene-2,8-disulfonic acid, disodium]
1.5 µg/mL	Cc1nn(C)c2sc(C(=O)Nc3cc4c(cc3S(=O)(=O)O)-c3cc(S(=O)(=O)O)c(NC(=O)c5cc6c(C)nn(C)c6s5)cc3S4(=O)=O)cc12 [Example 44, 3,7-Bis-[(1,3-di-methyl-1H-thieno[2,3-c]pyrazole-5-carbonyl)amino]-5,5-dioxo-5H-5^6-dibenzothiophene-2,8-disulfonic acid, disodium salt]
5 µg/mL	O=C(Nc1cc2c(cc1S(=O)(=O)O)-c1cc(S(=O)(=O)O)c(NC(=O)c3cnn(-c4ccccc4)n3)cc1S2(=O)=O)c1cnn(-c2ccccc2)n1 [Example 46, 5,5-Dioxo-3,7-bis-[(2-phenyl-2H-[1,2,3]triazole-4-carbonyl)amino]-5H-5^6-dibenzothiophene-2,8-disulfonic acid, disodium salt]
5 µg/mL	COc1ccc(C(=O)Nc2cc3c(cc2S(=O)(=O)O)-c2cc(S(=O)(=O)O)c(NC(=O)c4ccc(OC)cc4)cc2S3(=O)=O)cc1 [Example 50, 3,7-Bis-(4-methoxybenzoyl-amino)-5,5-dioxo-5H-5^6-dibenzothiophene-2,8-disulfonic acid, disodium salt]
5 µg/mL	COc1ccc(C(=O)Nc2cc3c(cc2S(=O)(=O)O)-c2cc(S(=O)(=O)O)c(NC(=O)c4ccc(OC)cc4OC)cc2S3(=O)=O)c(OC)c1 [Example 51, 3,7-Bis-(2,4-dimethoxybenzoyl-amino)-5,5-dioxo-5H-5^6-dibenzothiophene-2,8-disulfonic acid disodium salt]

More lines, now with the values behind:

SMILES	IC50
O=C(Nc1cc2sc3cc(NC(=O)c4ccc5cc6ccccc6cc5c4)c(C(=O)O)cc3c2cc1C(=O)O)c1ccc2cc3ccccc3cc2c1 [Example 3, 3,7-Bis[(2-anthracenylcarbonyl)amino]-2,8-dibenzothiophene-2,8-dicarboxylic acid, disodium salt]	3.4 µg/mL
O=C(Nc1cc2sc3cc(NC(=O)c4cc5sccc5s4)c(C(=O)O)cc3c2cc1C(=O)O)c1cc2sccc2s1 [Example 5, 3,7-Bis[(thieno[3,2-b]thien-2-ylcarbonyl)amino]dibenzothiophene-2,8-dicarboxylic acid, disodium salt]	0.7 µg/mL
O=C(/C=C/c1ccc(-c2ccccc2)cc1)Nc1cc2sc3cc(NC(=O)/C=C/c4ccc(-c5ccccc5)cc4)c(C(=O)O)cc3c2cc1C(=O)O [Example 9, 3,7-Bis-(3-biphenyl-4-ylacryloylamino)dibenzothiophene-2,8-dicarboxylic Acid, disodium salt]	3.4 µg/mL
COc1cc(/C=C/C(=O)Nc2cc3sc4cc(NC(=O)/C=C/c5cc(Br)c(O)c(OC)c5)c(C(=O)O)cc4c3cc2C(=O)O)cc(Br)c1O [Example 10, 3,7-Bis-[3-(3-bromo-4-hydroxy-5-methoxy-phenyl)acryloylamino]-dibenzothiophene-2,8-dicarboxylic Acid, disodium]	0.9 µg/mL
COc1ccc(/C=C/C(=O)Nc2cc3sc4cc(NC(=O)/C=C/c5ccc(OC)c(OC)c5OC)c(C(=O)O)cc4c3cc2C(=O)O)c(OC)c1OC [Example 11, 3,7-Bis-[3-(2,3,4-trimethoxyphenyl)acryloylamino]dibenzothiophene-2,8-dicarboxylic Acid, disodium salt]	1.7 µg/mL
C=C(C(=O)Nc1cc2sc3cc(Cl)c(C(=O)O)cc3c2cc1C(=O)O)c1ccc(OC)c(OC)c1Cl [Example 14, 3-Chloro-7-[2-(2-chloro-3,4-dimethoxyphenyl)acryloylamino]dibenzothiophene-2,8-dicarboxylic acid, disodium salt]	3 µg/mL
O=C(Nc1cc2sc3cc(Cl)c(C(=O)O)cc3c2cc1C(=O)O)c1ccc2cc3ccccc3cc2c1 [Example 15, 3-[(2-Anthracenylcarbonyl)amino]-7-chlorodibenzothiophene-2,8-dicarboxylic acid, disodium salt]	1.6 µg/mL
CCOP(=O)(O)c1cc2c(cc1NC(=O)/C=C/c1ccc(OC)c(OC)c1Cl)S(=O)(=O)c1cc(NC(=O)/C=C/c3ccc(OC)c(OC)c3Cl)c(P(=O)(O)OCC)cc1-2 [Example 19, [3,7-Bis-[3-(2-chloro-3,4-dimethoxyphenyl)acryloylamino]-8-(ethoxyhydroxyphosphoryl)-5 .5-dioxo-5H-5λ^6-dibenzothiophen-2-yl]phosphonic acid monoethyl ester, disodium salt]	0.55 µg/mL
CCOP(=O)(O)c1cc2c(cc1NC(=O)c1ccc3c(c1)C(=O)c1ccccc1C3=O)S(=O)(=O)c1cc(NC(=O)c3ccc4c(c3)C(=O)c3ccccc3C4=O)c(P(=O)(O)OCC)cc1-2 [Example 21, [3,7-Bis-[9,10-dioxo-9,10-dihydroanthracene-2-carbonyl)amino]-8-(ethoxyhydroxy-phosphoryl)-5,5-dioxo-5H-5^6-dibenzothiophen-2-yl]phosphonic acid monoethyl ester, disodium salt]	0.2 µg/mL
CCOP(=O)(O)c1cc2c(cc1NC(=O)c1ccc3cc4ccccc4cc3c1)S(=O)(=O)c1cc(NC(=O)c3ccc4cc5ccccc5cc4c3)c(P(=O)(O)OCC)cc1-2 [Example 22, [3,7-Bis-[(anthracene-2-carbonyl)amino]-8-(ethoxyhydroxy-phosphoryl)-5,5-dioxo-5H-5^6-dibenzothiophen-2-yl]-phosphonic acid mono-ethyl ester, disodium salt]	0.06 µg/mL
CCOP(=O)(O)c1cc2c(cc1NC(=O)c1cc3ccccc3s1)S(=O)(=O)c1cc(NC(=O)c3cc4ccccc4s3)c(P(=O)(OCC)OCC)cc1-2 [Example 23b, [3,7-Bis[(benzo[b]thiophene-2-carbonyl)amino-8-(diethoxyphosphoryl)-5,5-dioxo-5H-5λ^6-dibenzothiophen-2-yl]phosphonic acid monoethyl ester, monosodium salt]	0.58 µg/mL
O=C(/C=C/c1ccc([N+](=O)[O-])cc1)Nc1cc2c(cc1S(=O)(=O)O)-c1cc(S(=O)(=O)O)c(NC(=O)/C=C/c3ccc([N+](=O)[O-])cc3)cc1S2(=O)=O [Example 25, 3,7-Bis-[3-(4-nitrophenyl)-acryloylamino]-5,5-dioxo-5H-5^6-dibenzothiophene-2,8-disulfonic acid, disodium salt]	1 µg/mL
O=C(/C=C/c1cccc2ccccc12)Nc1cc2c(cc1S(=O)(=O)O)-c1cc(S(=O)(=O)O)c(NC(=O)/C=C/c3cccc4ccccc34)cc1S2(=O)=O [Example 26, 3,7-Bis-(3-naphthalen-1-yl-acryloylamino)-5,5-dioxo-5H-5^6-dibenzothiophene-2,8-disulfonic acid, disodium salt]	1.5 µg/mL
COc1ccccc1C=CC(=O)Nc1cc2c(cc1S(=O)(=O)O)-c1cc(S(=O)(=O)O)c(NC(=O)C=Cc3ccccc3OC)cc1S2(=O)=O [Example 37, 3,7-Bis-[3-(2-methoxyphenyl)-acryloylamino]-5,5-dioxo-5H-5^6-dibenzothiophene-2,8-disulfonic acid, disodium salt]	2 µg/mL
